The targets below were run with O=[As]([O-])(O)O.[K+] [potassium arsenate] (assay: thermal stability z-score vs DMSO; higher = more thermally stabilized by treatment). Conditions: HeLa; arsenate concentration 1 mM.
Protocol: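 Cellular thermal proteome profiling in HeLa cells treated with 1 mM arsenate for 1 h (DMSO pretreatment), heated to ten temperatures (37-66.3 °C). Soluble protein was quantified by TMT mass spectrometry relative to DMSO controls; the thermal stability score was transformed to a z-score; mean of n = 3 experiments.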
Chain of UniProt P15509 (P15509 whole entry): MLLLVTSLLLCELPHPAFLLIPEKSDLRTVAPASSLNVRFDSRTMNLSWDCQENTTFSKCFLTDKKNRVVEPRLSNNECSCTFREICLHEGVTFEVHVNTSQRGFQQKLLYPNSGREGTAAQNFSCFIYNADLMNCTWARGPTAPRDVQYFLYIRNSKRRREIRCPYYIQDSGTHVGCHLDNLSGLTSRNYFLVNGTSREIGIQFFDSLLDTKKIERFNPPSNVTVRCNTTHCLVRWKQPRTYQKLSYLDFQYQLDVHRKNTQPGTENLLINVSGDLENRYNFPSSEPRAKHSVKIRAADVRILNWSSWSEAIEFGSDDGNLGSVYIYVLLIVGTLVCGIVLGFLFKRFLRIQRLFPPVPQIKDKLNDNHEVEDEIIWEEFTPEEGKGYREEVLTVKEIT
Chain of UniProt Q9UPT5 (Q9UPT5 whole entry): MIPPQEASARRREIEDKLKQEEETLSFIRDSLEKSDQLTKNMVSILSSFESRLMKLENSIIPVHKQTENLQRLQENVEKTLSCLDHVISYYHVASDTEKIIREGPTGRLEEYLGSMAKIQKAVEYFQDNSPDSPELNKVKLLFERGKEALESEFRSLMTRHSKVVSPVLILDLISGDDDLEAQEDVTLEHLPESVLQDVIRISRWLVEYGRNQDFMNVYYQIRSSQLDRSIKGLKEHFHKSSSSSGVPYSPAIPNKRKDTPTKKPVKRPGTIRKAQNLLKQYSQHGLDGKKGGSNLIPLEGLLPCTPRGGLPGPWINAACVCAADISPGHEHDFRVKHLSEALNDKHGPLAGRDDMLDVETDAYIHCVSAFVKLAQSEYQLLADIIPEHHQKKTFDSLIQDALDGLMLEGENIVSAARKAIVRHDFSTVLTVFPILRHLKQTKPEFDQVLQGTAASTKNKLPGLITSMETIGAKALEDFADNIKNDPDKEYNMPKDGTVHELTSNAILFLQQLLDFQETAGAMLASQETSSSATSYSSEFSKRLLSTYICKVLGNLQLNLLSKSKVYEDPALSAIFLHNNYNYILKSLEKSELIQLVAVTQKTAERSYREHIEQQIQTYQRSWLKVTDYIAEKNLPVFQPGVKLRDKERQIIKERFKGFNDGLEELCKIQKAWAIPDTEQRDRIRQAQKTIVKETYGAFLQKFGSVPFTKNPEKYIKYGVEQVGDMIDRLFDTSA
Chain of UniProt P61457 (P61457 whole entry): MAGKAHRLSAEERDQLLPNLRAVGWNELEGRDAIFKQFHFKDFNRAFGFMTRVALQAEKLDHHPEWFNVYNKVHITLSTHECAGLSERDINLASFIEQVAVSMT
Chain of UniProt Q96E29 (Q96E29 whole entry): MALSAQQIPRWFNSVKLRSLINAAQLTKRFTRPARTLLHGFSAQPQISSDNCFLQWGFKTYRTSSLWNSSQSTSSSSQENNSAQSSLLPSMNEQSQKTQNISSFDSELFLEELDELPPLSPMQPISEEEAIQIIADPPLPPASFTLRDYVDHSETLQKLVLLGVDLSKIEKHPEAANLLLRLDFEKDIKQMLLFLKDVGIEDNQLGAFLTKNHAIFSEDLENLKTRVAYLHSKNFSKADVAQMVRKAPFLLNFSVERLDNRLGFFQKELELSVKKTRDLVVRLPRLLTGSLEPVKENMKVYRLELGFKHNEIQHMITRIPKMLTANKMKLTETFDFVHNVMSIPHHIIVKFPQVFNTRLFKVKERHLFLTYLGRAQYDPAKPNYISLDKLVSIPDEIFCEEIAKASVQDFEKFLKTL
Chain of UniProt O75638 (O75638 whole entry): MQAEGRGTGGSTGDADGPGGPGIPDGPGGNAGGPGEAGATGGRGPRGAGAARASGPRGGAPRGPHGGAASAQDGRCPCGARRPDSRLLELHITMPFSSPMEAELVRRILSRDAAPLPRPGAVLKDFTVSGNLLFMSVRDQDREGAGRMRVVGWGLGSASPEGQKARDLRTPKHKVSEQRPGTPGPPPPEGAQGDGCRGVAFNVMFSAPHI
Chain of UniProt Q9NX05 (Q9NX05 whole entry): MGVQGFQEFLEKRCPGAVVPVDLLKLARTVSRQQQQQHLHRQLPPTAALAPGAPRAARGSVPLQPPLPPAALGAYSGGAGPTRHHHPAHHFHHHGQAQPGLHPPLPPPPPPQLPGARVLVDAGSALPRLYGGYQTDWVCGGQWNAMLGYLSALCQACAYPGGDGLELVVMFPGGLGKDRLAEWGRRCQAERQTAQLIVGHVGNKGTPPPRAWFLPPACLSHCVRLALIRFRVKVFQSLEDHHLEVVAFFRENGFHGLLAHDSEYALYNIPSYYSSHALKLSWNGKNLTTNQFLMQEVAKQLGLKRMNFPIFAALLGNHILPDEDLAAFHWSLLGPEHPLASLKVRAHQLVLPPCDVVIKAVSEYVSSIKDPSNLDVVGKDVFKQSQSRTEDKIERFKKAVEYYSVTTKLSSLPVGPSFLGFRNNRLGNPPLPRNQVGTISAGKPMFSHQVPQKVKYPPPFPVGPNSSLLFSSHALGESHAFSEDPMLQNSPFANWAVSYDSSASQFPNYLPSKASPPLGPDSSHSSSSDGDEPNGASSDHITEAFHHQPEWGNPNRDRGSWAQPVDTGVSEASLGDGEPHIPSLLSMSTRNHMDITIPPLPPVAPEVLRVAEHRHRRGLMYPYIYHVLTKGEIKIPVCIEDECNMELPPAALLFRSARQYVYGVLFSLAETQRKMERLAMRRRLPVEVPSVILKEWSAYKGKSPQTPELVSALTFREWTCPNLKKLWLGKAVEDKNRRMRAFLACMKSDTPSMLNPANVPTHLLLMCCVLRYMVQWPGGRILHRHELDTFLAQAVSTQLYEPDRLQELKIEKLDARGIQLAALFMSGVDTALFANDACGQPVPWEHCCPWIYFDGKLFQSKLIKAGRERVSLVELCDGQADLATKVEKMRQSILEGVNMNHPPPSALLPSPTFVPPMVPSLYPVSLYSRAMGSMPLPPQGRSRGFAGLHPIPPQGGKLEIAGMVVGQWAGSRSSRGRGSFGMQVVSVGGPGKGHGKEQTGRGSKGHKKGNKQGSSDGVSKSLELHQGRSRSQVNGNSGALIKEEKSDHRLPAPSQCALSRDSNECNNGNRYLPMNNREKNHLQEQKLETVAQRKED
Chain of UniProt Q9Y3B8 (Q9Y3B8 whole entry): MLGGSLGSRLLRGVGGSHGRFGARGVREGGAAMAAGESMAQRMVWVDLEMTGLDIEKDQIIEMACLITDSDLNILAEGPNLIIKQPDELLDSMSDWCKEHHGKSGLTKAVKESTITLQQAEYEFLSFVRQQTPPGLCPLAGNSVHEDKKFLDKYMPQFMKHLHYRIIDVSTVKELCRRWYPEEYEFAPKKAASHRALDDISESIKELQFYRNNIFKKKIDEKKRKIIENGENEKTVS
Chain of UniProt O00423 (O00423 whole entry, looked up): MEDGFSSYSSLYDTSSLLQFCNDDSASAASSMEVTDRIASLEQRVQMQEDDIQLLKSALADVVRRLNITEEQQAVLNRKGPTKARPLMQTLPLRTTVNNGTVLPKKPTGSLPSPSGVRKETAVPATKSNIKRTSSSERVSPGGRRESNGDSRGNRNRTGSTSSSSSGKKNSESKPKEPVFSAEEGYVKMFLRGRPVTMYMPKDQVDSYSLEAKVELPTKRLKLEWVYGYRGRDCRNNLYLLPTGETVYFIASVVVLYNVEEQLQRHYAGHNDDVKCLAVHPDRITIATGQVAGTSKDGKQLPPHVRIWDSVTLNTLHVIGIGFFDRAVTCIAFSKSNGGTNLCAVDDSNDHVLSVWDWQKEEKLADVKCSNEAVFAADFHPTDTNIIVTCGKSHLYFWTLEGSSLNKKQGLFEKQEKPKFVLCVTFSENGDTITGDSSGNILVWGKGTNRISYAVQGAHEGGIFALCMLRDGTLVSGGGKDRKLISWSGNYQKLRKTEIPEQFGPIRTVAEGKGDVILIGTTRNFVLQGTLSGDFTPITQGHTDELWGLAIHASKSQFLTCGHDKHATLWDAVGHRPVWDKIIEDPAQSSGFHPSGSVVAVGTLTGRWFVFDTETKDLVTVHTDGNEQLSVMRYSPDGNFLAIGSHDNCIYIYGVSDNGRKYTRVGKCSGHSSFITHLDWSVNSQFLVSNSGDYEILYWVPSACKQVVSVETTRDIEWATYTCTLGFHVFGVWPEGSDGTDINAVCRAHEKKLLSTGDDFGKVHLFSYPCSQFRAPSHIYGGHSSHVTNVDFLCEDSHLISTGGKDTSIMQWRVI
Chain of UniProt O14656 (O14656 whole entry): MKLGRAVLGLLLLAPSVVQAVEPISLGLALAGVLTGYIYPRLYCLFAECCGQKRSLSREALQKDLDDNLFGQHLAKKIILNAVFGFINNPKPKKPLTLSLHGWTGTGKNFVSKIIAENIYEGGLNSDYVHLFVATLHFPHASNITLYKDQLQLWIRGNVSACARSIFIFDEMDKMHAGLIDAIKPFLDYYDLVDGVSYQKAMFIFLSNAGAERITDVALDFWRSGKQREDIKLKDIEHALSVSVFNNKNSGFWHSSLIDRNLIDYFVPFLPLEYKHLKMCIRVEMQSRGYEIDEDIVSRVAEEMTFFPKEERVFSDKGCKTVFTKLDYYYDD
Chain of UniProt P41134 (P41134 whole entry): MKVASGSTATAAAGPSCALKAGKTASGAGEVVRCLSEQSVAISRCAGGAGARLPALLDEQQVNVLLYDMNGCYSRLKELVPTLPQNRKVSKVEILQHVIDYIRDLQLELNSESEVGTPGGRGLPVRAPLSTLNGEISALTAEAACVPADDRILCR
Chain of UniProt P78317 (P78317 whole entry): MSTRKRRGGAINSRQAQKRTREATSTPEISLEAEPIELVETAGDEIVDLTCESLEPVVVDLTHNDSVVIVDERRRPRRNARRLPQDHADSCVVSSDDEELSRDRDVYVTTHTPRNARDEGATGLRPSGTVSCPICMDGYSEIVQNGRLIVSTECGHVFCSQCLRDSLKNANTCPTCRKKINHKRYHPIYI
Chain of UniProt P19404 (P19404 whole entry): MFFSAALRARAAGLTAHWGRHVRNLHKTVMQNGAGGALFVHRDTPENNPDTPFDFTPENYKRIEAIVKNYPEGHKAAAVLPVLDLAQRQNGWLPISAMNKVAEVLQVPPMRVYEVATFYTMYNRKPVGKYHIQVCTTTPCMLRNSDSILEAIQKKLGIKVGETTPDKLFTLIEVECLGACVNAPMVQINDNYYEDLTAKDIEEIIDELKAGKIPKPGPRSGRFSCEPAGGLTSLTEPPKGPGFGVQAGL
NDUFV2 (UniProt P19404) gave a thermal stability z-score of 0.966. In the case of PCID2 (UniProt Q5JVF3), the thermal stability z-score was 0.809. Work on CSF2RA (UniProt P15509) yielded a thermal stability z-score of 0.19. Work on NUP107 (UniProt P57740) yielded a thermal stability z-score of 0.77. Work on TMTC3 (UniProt Q6ZXV5) yielded a thermal stability z-score of 0.605. With FGFR1OP (UniProt O95684) the thermal stability z-score was 1.33. For MTERF3 (UniProt Q96E29), the thermal stability z-score was 0.564. With ELF1 (UniProt P32519) the thermal stability z-score was -0.287. HINT1 (UniProt P49773) showed a thermal stability z-score of -0.189. EML1 (UniProt O00423) gave a thermal stability z-score of -0.156. Target CYSTM1 (UniProt Q9H1C7) has a thermal stability z-score of -1.22. With GMPPB (UniProt Q9Y5P6) the thermal stability z-score was -0.104. NDUFS1 (UniProt P28331) was tested, and the thermal stability z-score was 0.842. Target RNF4 (UniProt P78317) has a thermal stability z-score of -0.192. With KIF1C (UniProt O43896) the thermal stability z-score was -0.086. ECSIT (UniProt Q9BQ95) was tested, and the thermal stability z-score was -0.207. With POLR3G (UniProt O15318) the thermal stability z-score was -0.356. ID1 (UniProt P41134) showed a thermal stability z-score of -0.00372. Target RNF169 (UniProt Q8NCN4) has a thermal stability z-score of -0.0867. Target EDEM2 (UniProt Q9BV94) has a thermal stability z-score of 0.127. SH3BP4 (UniProt Q9P0V3) showed a thermal stability z-score of -0.0405. For CTAG2 (UniProt O75638), the thermal stability z-score was 0.617. For MCCC2 (UniProt Q9HCC0), the thermal stability z-score was -0.197. For SEC13 (UniProt P55735), the thermal stability z-score was 0.729. GLYR1 (UniProt Q49A26) gave a thermal stability z-score of -0.145. ITGB1 (UniProt P05556) was tested, and the thermal stability z-score was 0.139. PCBD1 (UniProt P61457) showed a thermal stability z-score of 0.213. With FAM120C (UniProt Q9NX05) the thermal stability z-score was -0.296. EXOC7 (UniProt Q9UPT5) was tested, and the thermal stability z-score was -0.227. Work on LGALS3 (UniProt P17931) yielded a thermal stability z-score of -0.377. Work on TOMM40 (UniProt O96008) yielded a thermal stability z-score of 1.15. For UNC119 (UniProt Q13432), the thermal stability z-score was -0.0734. CPSF3 (UniProt Q9UKF6) showed a thermal stability z-score of -0.0903. With TOR1A (UniProt O14656) the thermal stability z-score was 0.174. In the case of REXO2 (UniProt Q9Y3B8), the thermal stability z-score was 0.192. In the case of DDX5 (UniProt P17844), the thermal stability z-score was -1.9. PIK3R3 (UniProt Q92569) showed a thermal stability z-score of 0.0593. With TIMM44 (UniProt O43615) the thermal stability z-score was -0.65. In the case of DECR1 (UniProt Q16698), the thermal stability z-score was -0.0171. Target BRAF (UniProt P15056) has a thermal stability z-score of 0.328. Work on TPM1 (UniProt P09493) yielded a thermal stability z-score of -0.151. In the case of HNRNPU (UniProt Q00839), the thermal stability z-score was 0.509. In the case of GNA11 (UniProt P29992), the thermal stability z-score was -1.21. In the case of CRIM1 (UniProt Q9NZV1), the thermal stability z-score was -2.04. Target GNE (UniProt Q9Y223) has a thermal stability z-score of 0.317. Work on ICAM1 (UniProt P05362) yielded a thermal stability z-score of -0.49. Work on SYNJ1 (UniProt O43426) yielded a thermal stability z-score of -0.277. For HAUS3 (UniProt Q68CZ6), the thermal stability z-score was -0.102. SNAP25 (UniProt P60880) gave a thermal stability z-score of -0.723. IMUP (UniProt Q9GZP8) showed a thermal stability z-score of 0.162. With NUCKS1 (UniProt Q9H1E3) the thermal stability z-score was 0.5. PNISR (UniProt Q8TF01) showed a thermal stability z-score of -0.509. NPLOC4 (UniProt Q8TAT6) gave a thermal stability z-score of -0.0761. SNAP47 (UniProt Q5SQN1) was tested, and the thermal stability z-score was -0.104. EDIL3 (UniProt O43854) was tested, and the thermal stability z-score was 1.14. Target HENMT1 (UniProt Q5T8I9) has a thermal stability z-score of 0.197. With SPATA5L1 (UniProt Q9BVQ7) the thermal stability z-score was 0.487. For RILPL1 (UniProt Q5EBL4), the thermal stability z-score was 1.21. ISG20L2 (UniProt Q9H9L3) showed a thermal stability z-score of -0.367. TIMM17B (UniProt O60830) gave a thermal stability z-score of 0.173. With SRGAP1 (UniProt Q7Z6B7) the thermal stability z-score was -0.0461. In the case of MRPS21 (UniProt P82921), the thermal stability z-score was 1.03. For TNIP1 (UniProt Q15025), the thermal stability z-score was -0.0487. With HMGB1 (UniProt P09429) the thermal stability z-score was 0.309. Work on ARSA (UniProt P15289) yielded a thermal stability z-score of -0.0376. With GPALPP1 (UniProt Q8IXQ4) the thermal stability z-score was -0.865. Work on SSB (UniProt P05455) yielded a thermal stability z-score of 0.363. In the case of MRPS14 (UniProt O60783), the thermal stability z-score was -0.644. For CBX3 (UniProt Q13185), the thermal stability z-score was 1.76. KIAA0368|ECM29 gave a thermal stability z-score of 0.537. CDC42BPA (UniProt Q5VT25) gave a thermal stability z-score of 0.379.

These targets were tested with NC(=O)CCCCC1CCSS1 [lipoamide] in the same assay as above. Conditions: HeLa; lipoamide concentration 100 µM; arsenate co-treatment: 1 mM arsenate 1 h.
Protocol: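 Cellular thermal proteome profiling in HeLa cells. Cells were treated with 100 µM lipoamide for 1 h, with or without 1 mM arsenate for a further 1 h, then heated to ten temperatures (37-66.3 °C), and soluble protein was quantified by TMT mass spectrometry relative to 0.1% DMSO controls. The thermal stability score (sum of log2 fold changes minus the abundance score) was transformed to a z-score; mean of n = 3 experiments.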
NDUFV2 (UniProt P19404) was tested, and the thermal stability z-score was 0.418. For PCID2 (UniProt Q5JVF3), the thermal stability z-score was -0.297. Work on CSF2RA (UniProt P15509) yielded a thermal stability z-score of 0.513. For NUP107 (UniProt P57740), the thermal stability z-score was -0.163. With TMTC3 (UniProt Q6ZXV5) the thermal stability z-score was -1.23. Target FGFR1OP (UniProt O95684) has a thermal stability z-score of 0.163. MTERF3 (UniProt Q96E29) showed a thermal stability z-score of -0.371. With ELF1 (UniProt P32519) the thermal stability z-score was -0.422. HINT1 (UniProt P49773) was tested, and the thermal stability z-score was 1.13. With EML1 (UniProt O00423) the thermal stability z-score was 0.345. CYSTM1 (UniProt Q9H1C7) gave a thermal stability z-score of -0.79. GMPPB (UniProt Q9Y5P6) showed a thermal stability z-score of -0.503. Target NDUFS1 (UniProt P28331) has a thermal stability z-score of 0.106. RNF4 (UniProt P78317) was tested, and the thermal stability z-score was -1.23. KIF1C (UniProt O43896) was tested, and the thermal stability z-score was -0.00389. For ECSIT (UniProt Q9BQ95), the thermal stability z-score was 0.434. With POLR3G (UniProt O15318) the thermal stability z-score was -0.603. ID1 (UniProt P41134) gave a thermal stability z-score of 0.197. RNF169 (UniProt Q8NCN4) showed a thermal stability z-score of -0.0589. EDEM2 (UniProt Q9BV94) showed a thermal stability z-score of 0.18. SH3BP4 (UniProt Q9P0V3) was tested, and the thermal stability z-score was 0.0947. For CTAG2 (UniProt O75638), the thermal stability z-score was -0.394. Work on MCCC2 (UniProt Q9HCC0) yielded a thermal stability z-score of 0.322. Work on SEC13 (UniProt P55735) yielded a thermal stability z-score of 0.378. GLYR1 (UniProt Q49A26) was tested, and the thermal stability z-score was 0.0933. ITGB1 (UniProt P05556) showed a thermal stability z-score of -0.614. For PCBD1 (UniProt P61457), the thermal stability z-score was 0.499. In the case of FAM120C (UniProt Q9NX05), the thermal stability z-score was -0.0604. Work on EXOC7 (UniProt Q9UPT5) yielded a thermal stability z-score of -0.927. LGALS3 (UniProt P17931) was tested, and the thermal stability z-score was 0.762. With TOMM40 (UniProt O96008) the thermal stability z-score was 0.59. UNC119 (UniProt Q13432) was tested, and the thermal stability z-score was 0.0331. CPSF3 (UniProt Q9UKF6) showed a thermal stability z-score of 0.15. TOR1A (UniProt O14656) was tested, and the thermal stability z-score was -3.18. For REXO2 (UniProt Q9Y3B8), the thermal stability z-score was 0.295.

From the supplement of paper PMC12463676, “Small-molecule dissolution of stress granules by redox modulation benefits ALS models” (Nature Chemical Biology, 2025)
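Note: each temperature applied for 3 min, abundance score taken as mean log2 fold change at the two lowest temperatures, z-score obtained by mean subtraction and division by SD.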
